For 5 compounds, IC90 results are on record in ChEMBL document CHEMBL4813957, “Antitubercular properties of thiazolidin-4-ones - A review” (Eur J Med Chem, 2021).

Each structure is given as a SMILES string. Values after ≈ are worked out from the molar mass of the structure shown.

For this test, the system named is Mycobacterium tuberculosis variant bovis. Put plainly: Antimycobacterial activity against Mycobacterium bovis BCG ATCC 35743 measured on 8th to 12th day by nitrate reductase assay. The class given is functional. Particulars: BCG str. ATCC 35743, time 8-12 day.
In general, IC90 refers to the concentration at which the effect reaches the 90% level. `Cc1cc(NS(=O)(=O)c2ccc(N3C(=O)CSC3c3c(Cl)cccc3Cl)cc2)no1` (stereo not given) yielded a 90% effect concentration (IC90) of 0.058 µg/mL (≈ 0.12 µM).
With `Cc1cc(NS(=O)(=O)c2ccc(N3C(=O)CSC3c3ccc(F)cc3)cc2)no1` (stereo not given) the figure was 0.058 µg/mL (≈ 0.134 µM); with `Cc1cc(NS(=O)(=O)c2ccc(N3C(=O)CSC3c3ccc(Cl)cc3)cc2)no1` (stereo not given), 0.058 µg/mL (≈ 0.129 µM); with `Cc1cc(NS(=O)(=O)c2ccc(N3C(=O)CSC3c3c(F)cccc3F)cc2)no1` (stereo not given), 0.058 µg/mL (≈ 0.128 µM).
Turning to `Cc1cc(NS(=O)(=O)c2ccc(N3C(=O)CSC3c3ccc(C(F)(F)F)cc3)cc2)no1` (stereo not given), the IC90 was 0.058 µg/mL (≈ 0.12 µM).
